Reference: ChEMBL document CHEMBL1201862, “PubChem BioAssay data set” (2004)
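Assay format: 96-well plates, 48-hour exposure. GI50 = concentration required for 50% inhibition of growth.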 Active and inactive are the calls of the source. Cut-off read from the data, not from the text of the source: active = GI50 up to about 1.1 µM and inactive = higher.

Legend:
Assay in all cases: DTP human tumour cell line panel, 48 h
[1] = tested on: 786-0
[2] = tested on: A498
[3] = tested on: BT-549
[4] = tested on: CAKI-1
[5] = tested on: EKVX
[6] = tested on: HOP-62
[7] = tested on: K562
[8] = tested on: MDA-MB-231
[9] = tested on: MOLT-4
[10] = tested on: NCI-H522
[11] = tested on: OVCAR-4
[12] = tested on: OVCAR-5
[13] = tested on: OVCAR-8
[14] = tested on: PC-3
[15] = tested on: RPMI-8226
[16] = tested on: SK-MEL-5
[17] = tested on: T47D
[18] = tested on: TK-10
[19] = tested on: U-251

Measured: GI50

Nc1ccc(Oc2ccc(C34CC5C6CC7(c8ccc(Oc9ccc(N)cc9)cc8)CC5C(C3)C(C7)C6C4)cc2)cc1
inactive: [1] > 100 µM | [2] > 100 µM | [3] > 100 µM | [4] > 100 µM | [5] > 100 µM | [6] > 100 µM | [7] > 100 µM | [8] > 100 µM | [9] > 100 µM | [10] > 100 µM | [11] > 100 µM | [12] > 100 µM | [13] > 100 µM | [14] > 100 µM | [15] > 100 µM | [16] > 100 µM | [17] > 100 µM | [18] > 100 µM | [19] > 100 µM

Cc1ccc(NNc2cc(=O)[nH]c(=O)[nH]2)cc1Cl
inactive: [1] 14.6 µM | [2] > 100 µM | [3] 41.1 µM | [4] 14.4 µM | [6] 71.9 µM | [7] 2.99 µM | [8] 15.8 µM | [9] 4.98 µM | [10] 16.5 µM | [11] 14.7 µM | [12] 73.8 µM | [14] 22.3 µM | [15] 10.9 µM | [16] 73.5 µM | [17] 9.95 µM | [18] 19.1 µM | [19] 16.4 µM

COC(=O)C12OC(C)(C(CC(=O)OC(C)(C)C)C1=O)C1C(=O)N(c3ccccc3)C(=O)C12 (stereo not drawn)
inactive: [1] > 100 µM | [2] > 100 µM | [3] > 100 µM | [4] > 100 µM | [6] > 100 µM | [7] > 100 µM | [8] > 100 µM | [9] > 100 µM | [10] > 100 µM | [11] > 100 µM | [12] > 100 µM | [13] > 100 µM | [14] > 100 µM | [15] > 100 µM | [16] > 100 µM | [17] > 100 µM | [18] > 100 µM | [19] > 100 µM

CC1=C2C(=O)c3ccccc3C(=O)[C@H]2[C@H]2CCO[C@H]2O1
inactive: [1] 18.5 µM | [2] > 100 µM | [3] 13.3 µM | [4] 22.2 µM | [5] 30.5 µM | [6] 21.3 µM | [7] 27.4 µM | [8] 24.2 µM | [9] 30.5 µM | [10] 16.3 µM | [11] 19.5 µM | [12] 23.7 µM | [13] 20.4 µM | [14] 30.3 µM | [15] 24.4 µM | [16] 15.6 µM | [17] 34.7 µM | [18] 28.5 µM | [19] 24.2 µM

O=C1c2cccnc2S(=O)(=O)N1c1ccc(Oc2ccccc2)cc1
inactive: [1] > 100 µM | [2] > 100 µM | [3] > 100 µM | [4] 51.8 µM | [5] > 100 µM | [6] > 100 µM | [7] > 100 µM | [8] > 100 µM | [9] 92 µM | [10] > 100 µM | [11] > 100 µM | [12] > 100 µM | [13] > 100 µM | [14] 72.3 µM | [15] > 100 µM | [17] > 100 µM | [19] > 100 µM

COc1cc(/C=C/C(=O)N[C@@H]2C(=O)N3[C@@H]2SC(C)(C)[C@@H]3C(=O)O)cc(OC)c1OC
inactive: [1] > 100 µM | [2] > 100 µM | [3] > 100 µM | [4] > 100 µM | [5] > 100 µM | [7] > 100 µM | [8] > 100 µM | [9] > 100 µM | [10] > 100 µM | [11] > 100 µM | [12] > 100 µM | [13] > 100 µM | [14] > 100 µM | [15] > 100 µM | [16] > 100 µM | [17] > 100 µM | [18] > 100 µM | [19] > 100 µM
